# Values of other authors as cited in patent publication US7109337B2, “Pyrimidine derivatives for the treatment of abnormal cell growth” (Pfizer Inc, priority 2002, dated 2006).
# Assays:
# [1] = tested on: another carcinoma that does not express the EGF receptor
# [2] = tested on: transplanted human mammary carcinoma that expresses epidermal growth factor receptor tyrosine kinase (EGFR); conditions: athymic nude mice
compound,measurement,setting,value
O=CN/C=C/c1cc(O)ccc1O [erbstatin],growth of another carcinoma,[1],without effect on the growth
same,growth of transplanted human mammary carcinoma,[2],selectively attenuates the growth
